According to patent US10988477B2 (Merck Patent GmbH, priority 2018, dated 2021):

Molecular target: GCN2 kinase (Homo sapiens, UniProt Q9P2K8)
Experiment: GCN2 enzyme inhibition assay (Transcreener ADP2 fluorescence polarization)
Format: biochemical
Conditions: Enzyme activity for compounds of Formula IV; Ki(app), 280 μM ATP, 25° C.
Outline: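 Inhibition of 4 nM GCN2 was measured with compound up to 8 μM final, ATP 280 μM and (RS)7 peptide 200 μM over a 1 h, 25 °C reaction. ADP FP readout; IC50 and Ki(app) calculated from percent inhibition.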

Sequence of GCN2 kinase (Q9P2K8 whole entry): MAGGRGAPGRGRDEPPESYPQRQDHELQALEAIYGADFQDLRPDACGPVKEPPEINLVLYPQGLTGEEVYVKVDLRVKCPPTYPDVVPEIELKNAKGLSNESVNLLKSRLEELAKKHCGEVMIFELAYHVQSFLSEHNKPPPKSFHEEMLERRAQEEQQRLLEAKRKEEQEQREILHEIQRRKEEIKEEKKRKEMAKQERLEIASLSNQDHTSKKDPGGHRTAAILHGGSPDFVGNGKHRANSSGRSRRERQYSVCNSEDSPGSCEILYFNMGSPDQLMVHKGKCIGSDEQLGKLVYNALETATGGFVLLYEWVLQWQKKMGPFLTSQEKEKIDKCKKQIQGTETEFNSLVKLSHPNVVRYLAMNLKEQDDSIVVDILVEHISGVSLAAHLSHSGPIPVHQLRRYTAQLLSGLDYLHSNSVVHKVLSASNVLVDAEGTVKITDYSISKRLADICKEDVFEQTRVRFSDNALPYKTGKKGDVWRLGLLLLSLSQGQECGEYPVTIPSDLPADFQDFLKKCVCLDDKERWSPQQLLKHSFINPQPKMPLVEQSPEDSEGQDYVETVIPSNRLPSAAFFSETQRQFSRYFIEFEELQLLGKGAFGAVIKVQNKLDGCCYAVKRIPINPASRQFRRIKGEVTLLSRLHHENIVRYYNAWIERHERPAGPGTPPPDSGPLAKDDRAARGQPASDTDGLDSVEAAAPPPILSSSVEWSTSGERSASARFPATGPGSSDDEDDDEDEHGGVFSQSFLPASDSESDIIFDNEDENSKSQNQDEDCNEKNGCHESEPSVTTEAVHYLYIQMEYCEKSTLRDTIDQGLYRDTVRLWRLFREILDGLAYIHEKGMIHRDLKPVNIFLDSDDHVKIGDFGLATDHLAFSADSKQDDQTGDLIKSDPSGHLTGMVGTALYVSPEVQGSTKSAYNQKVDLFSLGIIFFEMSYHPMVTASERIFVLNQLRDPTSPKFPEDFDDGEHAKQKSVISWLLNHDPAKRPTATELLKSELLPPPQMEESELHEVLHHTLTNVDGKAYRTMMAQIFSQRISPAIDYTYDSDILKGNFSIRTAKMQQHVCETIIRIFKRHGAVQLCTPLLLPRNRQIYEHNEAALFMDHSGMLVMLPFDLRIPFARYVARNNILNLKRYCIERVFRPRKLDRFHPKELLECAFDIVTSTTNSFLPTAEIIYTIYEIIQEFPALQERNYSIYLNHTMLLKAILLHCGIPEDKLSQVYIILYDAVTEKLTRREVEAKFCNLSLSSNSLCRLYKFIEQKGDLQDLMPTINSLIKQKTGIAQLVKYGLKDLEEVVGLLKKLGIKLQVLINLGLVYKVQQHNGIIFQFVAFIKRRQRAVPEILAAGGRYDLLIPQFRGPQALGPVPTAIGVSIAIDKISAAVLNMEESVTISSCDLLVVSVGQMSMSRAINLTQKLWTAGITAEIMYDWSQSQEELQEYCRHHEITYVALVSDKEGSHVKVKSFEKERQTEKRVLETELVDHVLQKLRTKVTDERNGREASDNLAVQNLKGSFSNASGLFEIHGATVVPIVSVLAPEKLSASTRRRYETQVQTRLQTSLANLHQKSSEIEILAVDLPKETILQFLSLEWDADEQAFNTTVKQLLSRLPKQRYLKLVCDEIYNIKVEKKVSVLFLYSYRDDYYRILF

Ki	Compound
100 to 1000 nM	CC(=O)NCC1CCCN(c2ccnc(-c3cnc4cnc(C(F)(F)F)cn34)n2)C1 (stereo not shown) [IV-526, N-((1-(2-(6-(Trifluoromethyl)imidazo[1,2-a]pyrazin-3-yl)pyrimidin-4-yl)piperidin-3-yl)methyl)acetamide]
100 to 1000 nM	FC(F)c1cn2c(-c3nccc(-c4cnn(C5CCOC5)c4)n3)cnc2cn1 (stereo not shown) [IV-153, 6-(Difluoromethyl)-3-(4-(1-(tetrahydrofuran-3-yl)-1H-pyrazol-4-yl)pyrimidin-2-yl)imidazo[1,2-a]pyrazine]
100 to 1000 nM	OCCn1cc(-c2ccnc(-c3cnc4cnc(C(F)(F)F)cn34)n2)cn1 [IV-431, 2-(4-(2-(6-(Trifluoromethyl)imidazo[1,2-a]pyrazin-3-yl)pyrimidin-4-yl)-1H-pyrazol-1-yl)ethan-1-ol]
100 to 1000 nM	CC(C)(O)CN1CCN(c2ccnc(-c3cnc4cnc(C(F)(F)F)cn34)n2)CC1 [IV-619, 2-Methyl-1-(4-(2-(6-(trifluoromethyl)imidazo[1,2-a]pyrazin-3-yl)pyrimidin-4-yl)piperazin-1-yl)propan-2-ol]
100 to 1000 nM	CC(=O)N1CCN(c2ccnc(-c3cnc4cnc(C(N)=O)cn34)n2)CC1(C)C [IV-699, 3-(4-(4-Acetyl-3,3-dimethylpiperazin-1-yl)pyrimidin-2-yl)imidazo[1,2-a]pyrazine-6-carboxamide]
< 10 nM	Fc1n[nH]cc1C1=CCCN(c2ccnc(-c3cnc4cnc(C(F)(F)F)cn34)n2)C1 [IV-430, 3-(4-(5-(3-Fluoro-1H-pyrazol-4-yl)-3,6-dihydropyridin-1(2H)-yl)pyrimidin-2-yl)-6-(trifluoromethyl)imidazo[1,2-a]pyrazine]
> 1000 nM	NS(=O)(=O)c1ccc(C(=O)N[C@H]2CCCN(c3ccnc(-c4cnc5cnc(C(F)(F)F)cn45)n3)C2)o1 [IV-735]
100 to 1000 nM	CC(=O)N1CCN(c2ccnc(-c3cnc4cnc(-c5cccc(CO)c5)cn34)n2)CC1 [IV-308, 1-(4-(2-(6-(3-(Hydroxymethyl)phenyl)imidazo[1,2-a]pyrazin-3-yl)pyrimidin-4-yl)piperazin-1-yl)ethan-1-one]
100 to 1000 nM	CC1C(c2cn[nH]c2)NCCN1c1ccnc(-c2cnc3cnc(Cl)cn23)n1 (single isomer, unassigned) [IV-229, 6-Chloro-3-(4-(2-methyl-3-(1H-pyrazol-4-yl)piperazin-1-yl)pyrimidin-2-yl)imidazo[1,2-a]pyrazine]
100 to 1000 nM	NC(=O)CC1CCCN(c2ccnc(-c3cnc4cnc(C(F)(F)F)cn34)n2)C1 (stereo not shown) [IV-529, 2-(1-(2-(6-(Trifluoromethyl)imidazo[1,2-a]pyrazin-3-yl)pyrimidin-4-yl)piperidin-3-yl)acetamide]
100 to 1000 nM	O=C1CC(C2CCCN(c3ccnc(-c4cnc5cnc(C(F)(F)F)cn45)n3)C2)CN1 (stereo not shown) [IV-663, 4-(1-(2-(6-(Trifluoromethyl)imidazo[1,2-a]pyrazin-3-yl)pyrimidin-4-yl)piperidin-3-yl)pyrrolidin-2-one]
100 to 1000 nM	NS(=O)(=O)C1CCCN(c2ccnc(-c3cnc4cnc(C(F)(F)F)cn34)n2)C1 (stereo not shown) [IV-536, 1-(2-(6-(Trifluoromethyl)imidazo[1,2-a]pyrazin-3-yl)pyrimidin-4-yl)piperidine-3-sulfonamide]
100 to 1000 nM	CC(=O)NCC1CCN(c2ccnc(-c3cnc4cnc(C(F)(F)F)cn34)n2)C1 (stereo not shown) [IV-537, N-((1-(2-(6-(Trifluoromethyl)imidazo[1,2-a]pyrazin-3-yl)pyrimidin-4-yl)pyrrolidin-3-yl)methyl)acetamide]
100 to 1000 nM	NC(=O)c1cn2c(-c3nccc(N4CCC(=O)N5CCCC5C4)n3)cnc2cn1 (stereo not shown) [IV-262, 3-(4-(5-Oxohexahydro-1H-pyrrolo[1,2-a][1,4]diazepin-2(3H)-yl)pyrimidin-2-yl)imidazo[1,2-a]pyrazine-6-carboxamide]
100 to 1000 nM	Clc1cn2c(-c3nccc(N4CCNC(c5cn[nH]c5)C4)n3)cnc2cn1 (single isomer, unassigned) [IV-237, 3-(4-(3-(1H-Pyrazol-4-yl)piperazin-1-yl)pyrimidin-2-yl)-6-chloroimidazo[1,2-a]pyrazine]
100 to 1000 nM	FC(F)(F)c1cn2c(-c3nccc(N4CCC(CN5CCOCC5)CC4)n3)cnc2cn1 [IV-510, 4-((1-(2-(6-(Trifluoromethyl)imidazo[1,2-a]pyrazin-3-yl)pyrimidin-4-yl)piperidin-4-yl)methyl)morpholine]
< 10 nM	Cc1[nH]ncc1C1NC(C)CN(c2ccnc(-c3cnc4cnc(Cl)cn34)n2)C1C (stereo not shown) [IV-278, 6-Chloro-3-(4-(2,5-dimethyl-3-(5-methyl-1H-pyrazol-4-yl)piperazin-1-yl)pyrimidin-2-yl)imidazo[1,2-a]pyrazine]
100 to 1000 nM	NC(=O)CC1CCN(c2ccnc(-c3cnc4cnc(C(F)(F)F)cn34)n2)C1 (stereo not shown) [IV-432, 2-(1-(2-(6-(Trifluoromethyl)imidazo[1,2-a]pyrazin-3-yl)pyrimidin-4-yl)pyrrolidin-3-yl)acetamide]
100 to 1000 nM	FC(F)(F)c1cn2c(-c3nccc(N4CCCC4)n3)cnc2cn1 [IV-428, 3-(4-(Pyrrolidin-1-yl)pyrimidin-2-yl)-6-(trifluoromethyl)imidazo[1,2-a]pyrazine]
100 to 1000 nM	CC(=O)N1CCN(c2ccnc(-c3cnc4cnc(C#N)cn34)n2)CC1 [IV-31, 3-(4-(4-Acetylpiperazin-1-yl)pyrimidin-2-yl)imidazo[1,2-a]pyrazine-6-carbonitrile]

Same assay, conditions: compounds of Formula II; 280 μM ATP, 4 nM GCN2 kinase

Ki	IC50	Compound
10 to 1000 nM		CS(=N)(=O)CC1CCCN(c2cc(-c3cnc4ccc(C(F)F)nn34)ncn2)C1 (single isomer, unassigned) [II-638, ((1-(6-(6-(Difluoromethyl)imidazo[1,2-b]pyridazin-3-yl)pyrimidin-4-yl)piperidin-3-yl)methyl)(imino)(methyl)-λ^6-sulfanone]
< 10 nM		CC1CC(CO)C(C)N(c2cc(-c3cnc4ccc(C(F)F)nn34)ncn2)C1 (stereo not shown) [II-577, (1-(6-(6-(Difluoromethyl)imidazo[1,2-b]pyridazin-3-yl)pyrimidin-4-yl)-2,5-dimethylpiperidin-3-yl)methanol]
10 to 1000 nM		Cc1nnc([C@@H]2CN(c3cc(-c4cnc5ccc(C(F)(F)F)nn45)ccn3)C[C@H](C)O2)o1 [II-747]
< 10 nM		CC1C(CNS(C)(=O)=O)C(F)(F)C(C)CN1c1cc(-c2cnc3ccc(C(F)F)nn23)ncn1 (single isomer, unassigned) [II-467, N-((1-(6-(6-(Difluoromethyl)imidazo[1,2-b]pyridazin-3-yl)pyrimidin-4-yl)-4,4-difluoro-2,5-dimethylpiperidin-3-yl)methyl)methanesulfonamide]
	10 to 1000 nM	Cc1nn(C)cc1C1CN(c2cc(-c3cnc4ccc(C(F)(F)F)nn34)ncn2)C[C@@H](C)O1 (stereo in doubt) [II-760, (2R,6R)-2-(1,3-dimethyl-1H-pyrazol-4-yl)-6-methyl-4-(6-(6-(trifluoromethyl)imidazo[1,2-b]pyridazin-3-yl)pyrimidin-4-yl)morpholine]
10 to 1000 nM		CC1(C)CN(c2cc(-c3cnc4ccc(C(F)F)nn34)ncn2)CC(CNS(C)(=O)=O)N1 (stereo not shown) [II-570, N-((4-(6-(6-(Difluoromethyl)imidazo[1,2-b]pyridazin-3-yl)pyrimidin-4-yl)-6,6-dimethylpiperazin-2-yl)methyl)methanesulfonamide]
10 to 1000 nM		CS(C)(=O)=NC1CC(C(F)(F)F)CN(c2cc(-c3cnc4ccc(C(F)F)nn34)ncn2)C1 (stereo not shown) [II-694, ((1-(6-(6-(Difluoromethyl)imidazo[1,2-b]pyridazin-3-yl)pyrimidin-4-yl)-5-(trifluoromethyl)piperidin-3-yl)imino)dimethyl-λ^6-sulfanone]
10 to 1000 nM		CC1CN(c2cc(-c3cnc4ccc(C(F)F)nn34)ncn2)CC(CO)O1 (stereo not shown) [II-616, (4-(6-(6-(Difluoromethyl)imidazo[1,2-b]pyridazin-3-yl)pyrimidin-4-yl)-6-methylmorpholin-2-yl)methanol]
10 to 1000 nM		CC(C)(O)C1CCCN(c2cc(-c3cnc4ccc(C(F)F)nn34)ncn2)C1 (stereo not shown) [II-608, 2-(1-(6-(6-(Difluoromethyl)imidazo[1,2-b]pyridazin-3-yl)pyrimidin-4-yl)piperidin-3-yl)propan-2-ol]
< 10 nM		CCC1CC(N=S(C)(C)=O)CN(c2cc(-c3cnc4ccc(C(F)F)nn34)ncn2)C1 (stereo not shown) [II-648, ((1-(6-(6-(Difluoromethyl)imidazo[1,2-b]pyridazin-3-yl)pyrimidin-4-yl)-5-ethylpiperidin-3-yl)imino)dimethyl-λ^6-sulfanone]
10 to 1000 nM		CC1CC(C(N)=O)C(C)N(c2cc(-c3cnc4ccc(C(F)(F)F)nn34)ncn2)C1 (single isomer, unassigned) [II-718, 2,5-Dimethyl-1-[6-[6-(trifluoromethyl)imidazo[1,2-b]pyridazin-3-yl]pyrimidin-4-yl]piperidine-3-carboxamide]

Same assay, conditions: compounds of Formula III; 280 μM ATP, 4 nM GCN2 kinase

Ki	Compound
< 10 nM	CC1C(CNS(C)(=O)=O)C(F)(F)C(C)CN1c1cc(-c2cnn3ccc(C(F)F)nc23)ncn1 (stereo not shown) [III-13, N-[[1-[6-[5-(Difluoromethyl)pyrazolo[1,5-a]pyrimidin-3-yl]pyrimidin-4-yl]-4,4-difluoro-2,5-dimethyl-3-piperidyl]methyl]methanesulfonamide]

Same assay, conditions: compounds of Formula IV; 280 μM ATP, 4 nM GCN2 kinase

IC50	Compound
10 to 1000 nM	Cc1n[nH]cc1[C@H]1C[C@H](C)CN(c2nccc(-c3cnc4cnc(C(F)(F)F)cn34)n2)C1 [IV-755, 3-(2-((3S,5R)-3-methyl-5-(3-methyl-1H-pyrazol-4-yl)piperidin-1-yl)pyrimidin-4-yl)-6-(trifluoromethyl)imidazo[1,2-a]pyrazine]

Same assay, conditions: compounds of Formula V; 280 μM ATP, 4 nM GCN2 kinase

Ki	Compound
100 to 1000 nM	C[C@@H]1CN(c2ccnc(-c3cnc4sc(C(F)F)cn34)n2)C[C@H](CNS(C)(=O)=O)C1(F)F (stereo in doubt) [Compound V-2, N-((-1-(2-(2-(difluoromethyl)imidazo[2,1-b]thiazol-5-yl)pyrimidin-4-yl)-4,4-difluoro-5-methylpiperidin-3-yl)methyl)methanesulfonamide]
